One data set deals with cell viability. The experiment in a line: ATP content assay for cell viability and compound cytotoxicity.
Data set [1] deals with SARS CoV-2 (USA_WA1/2020). It is filed as cell-based.
In data set [2] the test system is Ebola virus (EBOV/May-eGFP). The experiment in a line: microbe, parasite or virus in culture. It is filed as cell-based. As to conditions: Zaire ebolavirus, read-out: IC50, EBOV infection inhibition.

pIC50: −log10 of the molar value.

For the compound `Cc1cccc(C=NNc2cc(N3CCOCC3)nc(N3CCOCC3)n2)c1` [MLS000699212-03, Benzaldehyde, 3-methyl-, 2-(2,6-di-4-morpholinyl-4-pyrimidinyl) hydrazone], in the data set with cell viability (maximal effect), the “inhibition of cell viability (slight cytotoxicity)” value turned out to be 55%. Further, the pIC50 in the data set with cell viability (read-out: cytotoxicity IC50 (cell viability), counter assay to CPE) is 4.85; in data set [1] (read-out: IC50, SARS-CoV-2 CPE assay), 6.30. For the same compound, in data set [1], the “selectivity index (SI)” value stood at 28.
As to `CC(C(O)c1ccccc1)N(C)CCOC(c1ccccc1)c1ccccc1` (stereo not drawn) [difeterol], in data set [2], the pIC50 is ≥ 5.30.
With `CCOC(=O)c1c(CSc2ccccc2)n(C)c2cc(Br)c(O)c(CN(C)C)c12` [umifenovir], in data set [2], the pIC50 is ≥ 5.30.

The record behind these values is PMC9843700 (Nature biotechnology, 2021).
